Each structure is given as a SMILES string.
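Further: fluorescence intensity readout of USP7 enzymatic activity, reaction incubated 90 min at room temperature.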

In the test the target is USP7 (Homo sapiens, UniProt Q93009). In words: biochemical.
Chain of USP7 (Q93009 whole entry): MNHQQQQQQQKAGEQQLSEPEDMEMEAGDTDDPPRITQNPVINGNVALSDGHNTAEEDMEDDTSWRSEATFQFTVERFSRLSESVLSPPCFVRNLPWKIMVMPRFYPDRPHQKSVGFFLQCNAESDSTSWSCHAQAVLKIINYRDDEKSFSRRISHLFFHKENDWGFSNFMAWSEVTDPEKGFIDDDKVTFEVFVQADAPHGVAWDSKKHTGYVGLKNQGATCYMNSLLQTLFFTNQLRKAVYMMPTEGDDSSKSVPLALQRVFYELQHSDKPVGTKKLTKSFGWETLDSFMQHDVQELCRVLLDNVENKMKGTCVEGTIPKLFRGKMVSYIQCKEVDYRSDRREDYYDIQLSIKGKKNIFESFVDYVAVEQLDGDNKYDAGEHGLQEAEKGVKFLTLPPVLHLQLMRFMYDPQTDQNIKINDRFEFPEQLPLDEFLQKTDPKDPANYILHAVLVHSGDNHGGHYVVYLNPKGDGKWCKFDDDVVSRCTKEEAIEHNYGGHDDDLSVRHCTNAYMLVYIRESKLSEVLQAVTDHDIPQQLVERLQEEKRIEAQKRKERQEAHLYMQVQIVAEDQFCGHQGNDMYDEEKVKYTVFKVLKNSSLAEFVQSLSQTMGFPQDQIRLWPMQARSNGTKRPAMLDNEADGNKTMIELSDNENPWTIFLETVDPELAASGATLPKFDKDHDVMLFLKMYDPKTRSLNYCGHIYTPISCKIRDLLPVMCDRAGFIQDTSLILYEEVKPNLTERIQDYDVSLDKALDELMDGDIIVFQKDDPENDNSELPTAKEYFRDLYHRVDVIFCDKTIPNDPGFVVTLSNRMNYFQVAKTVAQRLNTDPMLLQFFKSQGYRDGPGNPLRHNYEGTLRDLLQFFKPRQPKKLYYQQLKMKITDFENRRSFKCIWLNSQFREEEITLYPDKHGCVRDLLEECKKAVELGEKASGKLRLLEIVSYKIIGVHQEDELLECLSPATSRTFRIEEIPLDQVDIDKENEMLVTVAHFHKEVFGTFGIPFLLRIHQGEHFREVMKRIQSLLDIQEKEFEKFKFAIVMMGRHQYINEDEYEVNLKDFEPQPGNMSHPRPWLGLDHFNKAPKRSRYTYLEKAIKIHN
Method: Example A. Biochemical Assay of USP7 Inhibitor Potency (IC50)
Fluorescence intensity assay of USP7 activity in the presence USP7 inhibitors. Recombinant USP7 protein (catalogue number E-519) and the fluorescence substrate ubiquitin-rhodamine 110 (Rh110) (catalogue number U-555) were purchased from Boston Biochem (840 Memorial Drive, Cambridge, MA 02139). The reaction was carried out in buffer 20 mM HEPES, pH 7.3, 150 mM NaCl, 1 mM TCEP, 125 μg/mL BSA at room temperature in a black 384-well Microplate (Greiner, catalog number 781076).
Test compounds were dissolved in DMSO to make 50 mM stock solution. […] In wells of a black 384-well Microplate, 15 μl of 100 pM of USP7 enzyme was added to each well with pre-diluted compounds and incubated at room temperature for 30 minutes, followed by addition of 10 μl of ubiquitin-rhodamine 110 (Rh110) substrate to reach 160 nM final concentration. The reaction mixtures were incubated for additional 90 minutes at room temperature. The fluorescence signal of the digested substrate was measured on an EnVision microplate reader (PerkinElmer,), using excitation at 485 nm and emission at 535 nm. The IC50 values were calculated using XLfit software.
In turn, `O=C1CCC(=O)N1Cc1cc2nccc(-c3cc(Cl)cc4c3N(C3CN(C5CC5)C3)CCC4)c2s1` [Example 5, 1-((7-(6-chloro-1-(1-cyclopropylazetidin-3-yl)-1,2,3,4-tetrahydroquinolin-8-yl)thieno[3,2-b]pyridin-2-yl)methyl)pyrrolidine-2,5-dione] returned a half-maximal inhibitory concentration (IC50) of 10 to 100 nM.
The same measure for `O=c1cc(NC2CCC2)cnn1Cc1cc2nccc(-c3cc(Cl)cc4c3N(C3CNC3)CCC4)c2s1` [Example 35, 2-[[7-[1-(azetidin-3-yl)-6-chloro-3,4-dihydro-2H-quinolin-8-yl]thieno[3,2-b]pyridin-2-yl]methyl]-5-(cyclobutylamino)pyridazin-3-one]: 10 to 100 nM; for `CC1(C)C[C@H](N2CCCc3cc(Cl)cc(-c4ccnc5cc(Cn6c(=O)ccn(CC(F)(F)F)c6=O)sc45)c32)CN1` (single isomer, unassigned) [Example 118b]: below 10 nM.
The same measure for `C[C@H](c1cc2nccc(-c3cc(C#N)cc4c3N([C@@H]3CCNC3)CCC4)c2s1)N1C(=O)CCC1=O` (single isomer, unassigned) [Example 112c]: 101 to 1000 nM; for `CC1(C)C[C@H](N2CCCc3cc(C#N)cc(-c4ccnc5cc(CN6C(=O)CN(C7CC7)C6=O)sc45)c32)CN1` [Example 131, (S)-8-(2-((3-cyclopropyl-2,5-dioxoimidazolidin-1-yl)methyl)thieno[3,2-b]pyridin-7-yl)-1-(5,5-dimethylpyrrolidin-3-yl)-1,2,3,4-tetrahydroquinoline-6-carbonitrile]: below 10 nM.
The same measure for `C[C@]1(CO)C[C@H](N2CCOc3cc(C#N)cc(-c4cc[n+]([O-])c5cc(Cn6ncc(C7(C(F)(F)F)CC7)cc6=O)sc45)c32)CN1` [Example 223, 7-(7-cyano-4-((3S,5R)-5-(hydroxymethyl)-5-methylpyrrolidin-3-yl)-3,4-dihydro-2H-benzo[b][1,4]oxazin-5-yl)-2-((6-oxo-4-(1-(trifluoromethyl)cyclopropyl)pyridazin-1(6H)-yl)methyl)thieno[3,2-b]pyridine 4-oxide]: 10 to 100 nM.
Take `CN1CC[C@@H](N2CCCc3cc(Cl)cc(-c4ccnc5cc(CN6C(=O)CCC6=O)sc45)c32)C1` [Example 60, (R)-1-((7-(6-chloro-1-(1-methylpyrrolidin-3-yl)-1,2,3,4-tetrahydroquinolin-8-yl)thieno[3,2-b]pyridin-2-yl)methyl)pyrrolidine-2,5-dione]: the IC50 is below 10 nM.
The figure for `O=C1CCC(=O)N1Cc1cc2ncnc(-c3cc(Cl)cc4c3N(C3CNC5(CCC5)C3)CCC4)c2s1` (single isomer, unassigned) [Example 161b] is 101 to 1000 nM; for `CC(C)(C)c1cnn(Cc2cc3nccc(-c4cc(C#N)cc5c4N([C@@H]4CN[C@@H](CO)C4)C[C@@H]4C[C@H]54)c3s2)c(=O)c1` (single isomer, unassigned) [Example 192b] it is below 10 nM.
The figure for `N#Cc1cc(-c2ccnc3cc(Cn4c(=O)ccn(CC(F)F)c4=O)sc23)c2c(c1)[C@H]1C[C@H]1CN2[C@@H]1CCNC1` [Example 117a, (1aR,7bS)-4-(2-((3-(2,2-difluoroethyl)-2,6-dioxo-3,6-dihydropyrimidin-1(2H)-yl)methyl)thieno[3,2-b]pyridin-7-yl)-3-((R)-pyrrolidin-3-yl)-1a,2,3,7b-tetrahydro-1H-cyclopropa[c]quinoline-6-carbonitrile] is 101 to 1000 nM.
The same measure for `CC(F)(F)Cn1ccc(=O)n(Cc2cc3nccc(-c4cc(C#N)cc5c4N([C@H]4CCNC4)CCC5)c3s2)c1=O` [Example 89, (S)-8-(2-((3-(2,2-difluoropropyl)-2,6-dioxo-2,3-dihydropyrimidin-1(6H)-yl)methyl)thieno[3,2-b]pyridin-7-yl)-1-(pyrrolidin-3-yl)-1,2,3,4-tetrahydroquinoline-6-carbonitrile]: below 10 nM; for `C[C@H]1CCc2cc(Cl)cc(-c3ccnc4cc(CN5C(=O)CCC5=O)sc34)c2N1[C@H]1CCNC1` (single isomer, unassigned) [Example 44b]: 101 to 1000 nM; for `N[C@@H]1CCN(C2CCOc3cc(Cl)cc(-c4ccnc5cc(CN6C(=O)CCC6=O)sc45)c32)C1` (stereo in doubt) [Example 230a, 1-((7-((S)-4-((R)-3-aminopyrrolidin-1-yl)-7-chlorochroman-5-yl)thieno[3,2-b]pyridin-2-yl)methyl)pyrrolidine-2,5-dione]: 10 to 100 nM.
`C[C@@H]1CCc2cc(Cl)cc(-c3ccnc4cc(CN5C(=O)CCC5=O)sc34)c2N1[C@@H]1CCNC1` (single isomer, unassigned) [Example 44c] showed an IC50 of 10 to 100 nM.
The figure for `O=C1[C@@H]2[C@H]3CC[C@H](C3)[C@@H]2C(=O)N1Cc1cc2nccc(-c3cc(Cl)cc4c3N([C@@H]3CNC5(CCC5)C3)CCC4)c2s1` [Example 155, (3aR,4S,7R,7aS)-2-((7-(6-chloro-1-((S)-5-azaspiro[3.4]octan-7-yl)-1,2,3,4-tetrahydroquinolin-8-yl)thieno[3,2-b]pyridin-2-yl)methyl)hexahydro-1H-4,7-methanoisoindole-1,3(2H)-dione] is 10 to 100 nM; for `O=c1ccn(C2CC(F)(F)C2)c(=O)n1Cc1cc2nccc(-c3cc(Cl)cc4c3N([C@H]3CCNC3)CCC4)c2s1` [Example 75] it is below 10 nM; for `CC(F)(F)Cn1ccc(=O)n(Cc2cc3nccc(-c4cc(Cl)cc5c4N([C@H]4CCNC4)CCC5)c3s2)c1=O` [Example 103, (S)-3-((7-(6-chloro-1-(pyrrolidin-3-yl)-1,2,3,4-tetrahydroquinolin-8-yl)thieno[3,2-b]pyridin-2-yl)methyl)-1-(2,2-difluoropropyl)pyrimidine-2,4(1H,3H)-dione] it is below 10 nM.
The same measure for `O=C1c2ccccc2CN1Cc1cc2nccc(-c3cc(Cl)cc4c3N([C@H]3CCNC3)CCC4)c2s1` [Example 71, (S)-2-((7-(6-chloro-1-(pyrrolidin-3-yl)-1,2,3,4-tetrahydroquinolin-8-yl)thieno[3,2-b]pyridin-2-yl)methyl)isoindolin-1-one]: 101 to 1000 nM; for `C[C@H](c1cc2nccc(-c3cc(C#N)cc4c3N([C@H]3CCNC3)CCC4)c2s1)N1C(=O)CCC1=O` (single isomer, unassigned) [Example 112a]: 10 to 100 nM; for `CC(C)(C)c1cnn(Cc2cc3nccc(-c4cc(Cl)cc5c4N(C4CNC(CO)(CO)C4)CCO5)c3s2)c(=O)c1` (stereo in doubt) [Example 213b, (S)-2-((7-(4-(5,5-bis(hydroxymethyl)pyrrolidin-3-yl)-7-chloro-3,4-dihydro-2H-benzo[b][1,4]oxazin-5-yl)thieno[3,2-b]pyridin-2-yl)methyl)-5-(tert-butyl)pyridazin-3(2H)-one]: below 10 nM.
The figure for `CC1(C)C[C@@H](N2CCCc3cc(Cl)cc(-c4ccnc5cc(Cn6c(=O)ccn(CC(F)(F)F)c6=O)sc45)c32)CN1` (single isomer, unassigned) [Example 118a] is 10 to 100 nM; for `CC(C)(C)c1cnn(Cc2cc3nccc(-c4cc(C#N)cc5c4N([C@@H]4CN[C@@](C)(CO)C4)CCO5)c3s2)c(=O)c1` [Example 221, 5-[2-[(4-tert-butyl-6-oxo-pyridazin-1-yl)methyl]thieno[3,2-b]pyridin-7-yl]-4-[(3S,5R)-5-(hydroxymethyl)-5-methyl-pyrrolidin-3-yl]-2,3-dihydro-1,4-benzoxazine-7-carbonitrile] it is below 10 nM; for `CC1(c2cnn(Cc3cc4nccc(-c5cc(Cl)cc6c5N([C@@H]5CN[C@@H](CO)C5)CCC6)c4s3)c(=O)c2)CC1` [Example 188, 2-((7-(6-chloro-1-((3S,5R)-5-(hydroxymethyl)pyrrolidin-3-yl)-1,2,3,4-tetrahydroquinolin-8-yl)thieno[3,2-b]pyridin-2-yl)methyl)-5-(1-methylcyclopropyl)pyridazin-3(2H)-one] it is below 10 nM.
`CC(C)(C)c1cnn(Cc2cc3nccc(-c4cc(C#N)cc5c4N([C@H]4CN[C@@H](CO)C4)C[C@H]4C[C@@H]54)c3s2)c(=O)c1` (single isomer, unassigned) [Example 193b]: the concentration for half-maximal inhibition (IC50) fell in the range of 10 to 100 nM.
The same measure for `O=C1CCC(=O)N1Cc1cc2nccc(-c3cc(Cl)cc4c3N(C3CNC5(CCC5)C3)C(=O)CO4)c2s1` (single isomer, unassigned) [Example 173b]: 101 to 1000 nM; for `Cc1ccnn(Cc2cc3nccc(-c4cc(C(F)(F)F)cc5c4N([C@@H]4CNC6(CCC6)C4)CCO5)c3s2)c1=O` [Example 176b, (S)-2-((7-(4-(5-azaspiro[3.4]octan-7-yl)-7-(trifluoromethyl)-3,4-dihydro-2H-benzo[b][1,4]oxazin-5-yl)thieno[3,2-b]pyridin-2-yl)methyl)-4-methylpyridazin-3(2H)-one]: below 10 nM.
Turning to `O=C1CCC(=O)N1Cc1cc2nccc(-c3cc(Cl)cc4c3N(C3CN(CCO)C3)CCC4)c2s1` [Example 10, 1-[[7-[6-chloro-1-[1-(2-hydroxyethyl)azetidin-3-yl]-3,4-dihydro-2H-quinolin-8-yl]thieno[3,2-b]pyridin-2-yl]methyl]pyrrolidine-2,5-dione], the half-inhibitory concentration (IC50) is 10 to 100 nM.
The same measure for `O=c1cc(N2CCOCC2)cnn1Cc1cc2nccc(-c3cc(Cl)cc4c3N(C3CNC3)CCC4)c2s1` [Example 34]: 10 to 100 nM.
The figure for `C[C@@H](c1cc2nccc(-c3cc(C#N)cc4c3N([C@H]3CCNC3)CCC4)c2s1)N1C(=O)CCC1=O` (single isomer, unassigned) [Example 112b] is 101 to 1000 nM; for `O=C1CCC(=O)N1Cc1cc2ncnc(-c3cc(Cl)cc4c3N([C@H]3CNC5(CCC5)C3)C[C@H]3C[C@@H]43)c2s1` [Example 167b, 1-((4-((1aS,7bR)-6-chloro-3-((R)-5-azaspiro[3.4]octan-7-yl)-1a,2,3,7b-tetrahydro-1H-cyclopropa[c]quinolin-4-yl)thieno[3,2-d]pyrimidin-6-yl)methyl)pyrrolidine-2,5-dione] it is above 1000 nM; for `O=C1CCC(=O)N1Cc1cc2nccc(-c3cc(Cl)cc4c3N([C@H]3CNC5(CCC5)C3)C[C@@H]3C[C@H]43)c2s1` [Example 165b, 1-((7-((1aR,7bS)-6-chloro-3-((R)-5-azaspiro[3.4]octan-7-yl)-1a,2,3,7b-tetrahydro-1H-cyclopropa[c]quinolin-4-yl)thieno[3,2-b]pyridin-2-yl)methyl)pyrrolidine-2,5-dione] it is 101 to 1000 nM.

As a reminder, the IC50 is the concentration that inhibits the measured activity by half. A low value points to higher potency.

For the origin of these results see patent US20240158412A1 (Faxian Therapeutics, LLC, priority 2021, published 2024).
